The values that follow come from EP2955182A1, “Pyridazinones for the treatment of cancer” (Max-Planck-Gesellschaft zur Förderung der Wissenschaften …, priority 2014, dated 2015).

The target of the first test is PDEδ (Homo sapiens, UniProt O43924). The test can be described thus: Fluorescence polarization competition binding assay (displacement titration of labeled Atorvastatin-probe).
Conditions: not given
An excerpt:
Example C.2: Displacement titrations of labeled Atorvastatin-probe for the determination of KD values:
Table 3. KD values for compounds of general formula (I) as determined by means of fluorescence polarization assay
In general terms: In fluorescence polarisation assays a small probe gives low polarisation when free and higher when bound to something large.
With `Cc1ccc(-n2nc3c(=O)n(CCCC(=O)NCc4ccccc4)nc(C)c3c2C)cc1` [Compound 42], the Kd is under 30 nM.

The test is the same for the next values; noted with them: fluorescence polarization assay, displacement of fluorescent-tagged Atorvastatin analog from PDEδ.
On to `Cc1c(Cl)cccc1NC(=O)CCCn1nc(C)c2c(C)n(-c3ccccc3)nc2c1=O` [Compound 29, N-(3-chloro-2-methylphenyl)-4-(3,4-dimethyl-7-oxo-2-phenyl-2H-pyrazolo[3,4-d]pyridazin-6(7H)-yl)butanamide], for which the Kd was under 30 nM.

Still in this test, the particulars now being: fluorescence polarization assay, displacement of fluorescent-tagged Atorvastatin analog from PDEδ; read-out: KD.
As to `Cc1c2cnn(-c3ccccc3)c(=O)c2c(C)n1CCCc1nnc(-c2ccc(C(F)(F)F)cc2)o1` [Compound 26, 5,7-dimethyl-2-phenyl-6-(3-(5-(4-(trifluoromethyl)phenyl)-1,3,4-oxadiazol-2-yl)propyl)-2,6-dihydro-1H-pyrrolo[3,4-d]pyridazin-1-one], the Kd fell in the range of 100 to 1000 nM.

For the compound `Cc1ccc(-c2nnc(CCCn3c(C)c4cnn(-c5ccccc5)c(=O)c4c3C)o2)cc1` [Compound 23, 5,7-dimethyl-2-phenyl-6-(3-(5-(p-tolyl)-1,3,4-oxadiazol-2-yl)propyl)-2,6-dihydro-1H-pyrrolo[3,4-d]pyridazin-1-one], the Kd is over 1000 nM.

Regarding `Cc1c2cnn(-c3ccccc3)c(=O)c2c(C)n1CCCC(=O)NCc1ccc(Cl)cc1` [Compound 5, N-(4-chlorobenzyl)-4-(5,7-dimethyl-1-oxo-2-phenyl-1H-pyrrolo[3,4-d]pyridazin-6(2H)-yl)butanamide], the Kd was 30 to 100 nM.

Regarding `Cc1c2cnn(-c3ccccc3)c(=O)c2c(C)n1CCCc1nnc(-c2ccncc2)o1` [Compound 28, 5,7-dimethyl-2-phenyl-6-(3-(5-(pyridin-4-yl)-1,3,4-oxadiazol-2-yl)propyl)-2,6-dihydro-1H-pyrrolo[3,4-d]pyridazin-1-one], the Kd is over 1000 nM.

On to `Cc1ccc(-n2nc3c(=O)n(CCCC(=O)NC4CCCC4)nc(C)c3c2C)cc1` [Compound 52, N-cyclopentyl-4-(3,4-dimethyl-7-oxo-2-(p-tolyl)-2H-pyrazolo[3,4-d]pyridazin-6(7H)-yl)butanamide], for which the Kd was under 30 nM.

For the compound `Cc1ccc(-c2noc(CCCn3c(C)c4cnn(-c5ccccc5)c(=O)c4c3C)n2)cc1` [Compound 17, 5,7-dimethyl-2-phenyl-6-(3-(3-(p-tolyl)-1,2,4-oxadiazol-5-yl)propyl)-2,6-dihydro-1H-pyrrolo[3,4-d]pyridazin-1-one], the Kd is over 1000 nM.

In the case of `Cc1c2cnn(-c3ccccc3)c(=O)c2c(C)n1CCCc1nc(-c2ccccc2)no1` [Compound 16, 5,7-dimethyl-2-phenyl-6-(3-(3-phenyl-1,2,4-oxadiazol-5-yl)propyl)-2,6-dihydro-1H-pyrrolo[3,4-d]pyridazin-1-one], the Kd lay within 100 to 1000 nM.

On to `Cc1c2cnn(-c3ccccc3)c(=O)c2c(C)n1CCCC(=O)NCc1ccccn1` [Compound 8, 4-(5,7-dimethyl-1-oxo-2-phenyl-1H-pyrrolo[3,4-d]pyridazin-6(2H)-yl)-N-(pyridin-2-ylmethyl)butanamide], for which the Kd lay within 100 to 1000 nM.

With `Cc1ccc(-n2nc3c(=O)n(CCCC(=O)NCc4ccco4)nc(C)c3c2C)cc1` [Compound 38, 4-(3,4-dimethyl-7-oxo-2-(p-tolyl)-2H-pyrazolo[3,4-d]pyridazin-6(7H)-yl)-N-(furan-2-ylmethyl)butanamide], the Kd was in the range of 30 to 100 nM.

`Cc1nn(CCCC(=O)NCc2ccccc2)c(=O)c2nn(-c3ccccc3)c(C)c12` [Compound 31, N-benzyl-4-(3,4-dimethyl-7-oxo-2-phenyl-2H-pyrazolo[3,4-d]pyridazin-6(7H)-yl)butanamide]: the Kd lay within 30 to 100 nM.

As for `Cc1nn(CCCC(=O)NCCc2ccccc2)c(=O)c2nn(-c3ccccc3)c(C)c12` [Compound 36, 4-(3,4-dimethyl-7-oxo-2-phenyl-2H-pyrazolo[3,4-d]pyridazin-6(7H)-yl)-N-phenethylbutanamide], the Kd is under 30 nM.

With `COc1ccc(-c2noc(CCCn3c(C)c4cnn(-c5ccccc5)c(=O)c4c3C)n2)cc1` [Compound 18, 6-(3-(3-(4-methoxyphenyl)-1,2,4-oxadiazol-5-yl)propyl)-5,7-dimethyl-2-phenyl-2,6-dihydro-1H-pyrrolo[3,4-d]pyridazin-1-one], the Kd is over 1000 nM.

As for `Cc1c2cnn(-c3ccccc3)c(=O)c2c(C)n1CCCC(=O)NC1CCC(C)CC1` (stereo not shown) [Compound 12, 4-(5,7-dimethyl-1-oxo-2-phenyl-1H-pyrrolo[3,4-d]pyridazin-6(2H)-yl)-N-(4-methylcyclohexyl)butanamide], the Kd is under 30 nM.

Consider `Cc1c2cnn(-c3ccccc3)c(=O)c2c(C)n1CCCC(=O)NCc1ccco1` [Compound 7, 4-(5,7-dimethyl-1-oxo-2-phenyl-1H-pyrrolo[3,4-d]pyridazin-6(2H)-yl)-N-(furan-2-ylmethyl)butanamide], for which the Kd lay in the range of 100 to 1000 nM.

As to `Cc1c2cnn(-c3ccccc3)c(=O)c2c(C)n1CCCc1nnc(-c2ccccc2)o1` [Compound 22, 5,7-dimethyl-2-phenyl-6-(3-(5-phenyl-1,3,4-oxadiazol-2-yl)propyl)-2,6-dihydro-1H-pyrrolo[3.4-d]pyridazin-1-one], the Kd lay in the range of 100 to 1000 nM.

As for `Cc1c2cnn(-c3ccccc3)c(=O)c2c(C)n1CCCC(=O)NC1CC1` [Compound 9, N-cyclopropyl-4-(5,7-dimethyl-1-oxo-2-phenyl-1H-pyrrolo[3,4-d]pyridazin-6(2H)-yl)butanamide], the Kd lay in the range of 100 to 1000 nM.

On to `Cc1c2cnn(-c3ccccc3)c(=O)c2c(C)n1CCCC(=O)NCc1ccccc1` [Compound 1, N-benzyl-4-(5,7-dimethyl-1-oxo-2-phenyl-1H-pyrrolo[3,4-d]pyridazin-6(2H)-yl)butanamide], for which the Kd is 30 to 100 nM.

Take `Cc1ccc(-n2nc3c(=O)n(CCCC(=O)NCc4ccc(OC(C)C)cc4)nc(C)c3c2C)cc1` [Compound 45]: the Kd is under 30 nM.

Turning to `COc1ccc(CNC(=O)CCCn2nc(C)c3c(C)n(-c4ccc(C)cc4)nc3c2=O)cc1` [Compound 43, 4-(3,4-dimethyl-7-oxo-2-(p-tolyl)-2H-pyrazolo[3,4-d]pyridazin-6(7H)-yl)-N-(4-methoxybenzyl)butanamide], the Kd was under 30 nM.

With `COc1ccc(OC)c(-c2noc(CCCn3c(C)c4cnn(-c5ccccc5)c(=O)c4c3C)n2)c1` [Compound 19, 6-(3-(3-(2,5-dimethoxyphenyl)-1,2,4-oxadiazol-5-yl)propyl)-5,7-dimethyl-2-phenyl-2,6-dihydro-1H-pyrrolo[3,4-d]pyridazin-1-one], the Kd was over 1000 nM.

In the case of `Cc1ccc(-n2nc3c(=O)n(CCCC(=O)NCC4CCCO4)nc(C)c3c2C)cc1` (stereo not shown) [Compound 39, 4-(3,4-dimethyl-7-oxo-2-(p-tolyl)-2H-pyrazolo[3,4-d]pyridazin-6(7H)-yl)-N-((tetrahydrofuran-2-yl)methyl)butanamide], the Kd lay in the range of 30 to 100 nM.

For `Cc1ccc(CNC(=O)CCCn2nc(C)c3c(C)n(-c4ccccc4)nc3c2=O)cc1` [Compound 35, 4-(3,4-dimethyl-7-oxo-2-phenyl-2H-pyrazolo[3,4-d]pyridazin-6(7H)-yl)-N-(4-methylbenzyl)butanamide], the Kd lay in the range of 30 to 100 nM.

For the compound `Cc1ccc(CCNC(=O)CCCn2nc(C)c3c(C)n(-c4ccccc4)nc3c2=O)cc1` [Compound 37, 4-(3,4-dimethyl-7-oxo-2-phenyl-2H-pyrazolo[3,4-d]pyridazin-6(7H)-yl)-N-(4-methylphenethyl)butanamide], the Kd was under 30 nM.

`Cc1ccc(-n2nc3c(=O)n(CCCC(=O)NCc4cccnc4)nc(C)c3c2C)cc1` [Compound 41, 4-(3,4-dimethyl-7-oxo-2-(p-tolyl)-2H-pyrazolo[3,4-d]pyridazin-6(7H)-yl)-N-(pyridin-3-ylmethyl)butanamide]: the Kd lay within 100 to 1000 nM.

On to `Cc1c2cnn(-c3ccccc3)c(=O)c2c(C)n1CCCc1nnc(-c2ccc(F)cc2)o1` [Compound 27, 6-(3-(5-(4-fluorophenyl)-1,3,4-oxadiazol-2-yl)propyl)-5,7-dimethyl-2-phenyl-2,6-dihydro-1H-pyrrolo[3,4-d]pyridazin-1-one], for which the Kd fell in the range of 100 to 1000 nM.

For the compound `Cc1ccc(-n2nc3c(=O)n(CCCC(=O)NC4CCC(C)CC4)nc(C)c3c2C)cc1` (stereo not shown) [Compound 53, 4-(3,4-dimethyl-7-oxo-2-(p-tolyl)-2H-pyrazolo[3,4-d]pyridazin-6(7H)-yl)-N-(4-methylcyclohexyl)butanamide], the Kd was under 30 nM.

As for `Cc1ccc(CCNC(=O)CCCn2nc(C)c3c(C)n(-c4ccc(C)cc4)nc3c2=O)cc1` [Compound 47, 4-(3,4-dimethyl-7-oxo-2-(p-tolyl)-2H-pyrazolo[3,4-d]pyridazin-6(7H)-yl)-N-(4-methylphenethyl)butanamide], the Kd is under 30 nM.

`Cc1nn(CCCC(=O)NCc2ccco2)c(=O)c2nn(-c3ccccc3)c(C)c12` [Compound 30, 4-(3,4-dimethyl-7-oxo-2-phenyl-2H-pyrazolo[3,4-d]pyridazin-6(7H)-yl)-N-(furan-2-ylmethyl)butanamide]: the Kd was in the range of 30 to 100 nM.

In the case of `Cc1ccc(-n2nc3c(=O)n(CCCC(=O)NCc4ccccn4)nc(C)c3c2C)cc1` [Compound 40, 4-(3,4-dimethyl-7-oxo-2-(p-tolyl)-2H-pyrazolo[3,4-d]pyridazin-6(7H)-yl)-N-(pyridin-2-ylmethyl)butanamide], the Kd is 100 to 1000 nM.

Take `COc1ccc(CNC(=O)CCCn2nc(C)c3c(C)n(-c4ccccc4)nc3c2=O)cc1` [Compound 32, 4-(3,4-dimethyl-7-oxo-2-phenyl-2H-pyrazolo[3,4-d]pyridazin-6(7H)-yl)-N-(4-methoxybenzyl)butanamide]: the Kd fell in the range of 30 to 100 nM.

With `Cc1ccc(-n2nc3c(=O)n(CCCC(=O)NCCc4ccccc4)nc(C)c3c2C)cc1` [Compound 46, 4-(3,4-dimethyl-7-oxo-2-(p-tolyl)-2H-pyrazolo[3,4-d]pyridazin-6(7H)-yl)-N-phenethylbutanamide], the Kd is under 30 nM.

As for `Cc1c2cnn(-c3ccccc3)c(=O)c2c(C)n1CCCc1nc(-c2ccc(F)cc2)no1` [Compound 21, 6-(3-(3-(4-fluorophenyl)-1,2,4-oxadiazol-5-yl)propyl)-5,7-dimethyl-2-phenyl-2,6-dihydro-1H-pyrrolo[3,4-d]pyridazin-1-one], the Kd fell in the range of 100 to 1000 nM.

For orientation: Kd means the concentration at which binding is half-saturated.
